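Each compound was tested at five concentrations against cells in 96-well plates for 48 hours. Here, GI50 denotes the concentration required for 50% inhibition of growth. TGI is the concentration that stops growth completely.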
Assays:
Assay in all cases: DTP human tumour cell line panel, 48 h
[1] = system: SF-268 CNS
[2] = system: UACC-257 melanoma
[3] = system: HL-60(TB) leukemia
[4] = system: LOX IMVI melanoma
[5] = system: TK-10 renal
[6] = system: OVCAR-4 ovarian
[7] = system: MALME-3M melanoma
[8] = system: OVCAR-3 ovarian
[9] = system: SN12C renal
[10] = system: MDA-MB-435

| Structure (SMILES) | TGI [1] [µM] | TGI [2] [µM] | TGI [3] [µM] | TGI [4] [µM] | TGI [5] [µM] | TGI [6] [µM] | TGI [7] [µM] | TGI [8] [µM] | TGI [9] [µM] | GI50 [1] [µM] | GI50 [3] [µM] | GI50 [4] [µM] | GI50 [7] [µM] | GI50 [8] [µM] | GI50 [9] [µM] | GI50 [10] [µM] | TGI [10] [µM] | GI50 [2] [µM] | GI50 [5] [µM] | GI50 [6] [µM] |
| --- | --- | --- | --- | --- | --- | --- | --- | --- | --- | --- | --- | --- | --- | --- | --- | --- | --- | --- | --- | --- |
| CS/C(=N\C(=S)N(C)C)N(c1ccccc1)c1nc(=[N+](C)C)ss1 | 26.4 | 17.3 | 5.98 | 18.1 | > 100 | 24.7 | 7.44 | 22.7 | 37.9 |  |  |  |  |  |  |  |  |  |  |  |
| COc1ccc(C2CC(=O)c3c(O)cc(O)cc3O2)cc1O (configuration not stated) | > 100 | > 100 | > 100 | > 100 | > 100 | > 100 | > 100 | > 100 | > 100 |  |  |  |  |  |  |  |  |  |  |  |
| CN(C)c1ccc2c(=O)c3ccccc3oc2n1 | > 100 | > 100 | > 100 | > 100 | > 100 | > 100 | > 100 | > 100 | > 100 |  |  |  |  |  |  |  |  |  |  |  |
| COc1ccccc1NC(=O)c1sc2nc3c(cc2c1N)C(=O)CCC3 | > 100 |  | > 100 | > 100 |  |  | > 100 | > 100 | > 100 | 5.06 | > 100 | > 100 | 1.75 | 25.3 | > 100 | 0.295 | 1.58 |  |  |  |
| COc1ccccc1/C=C(\C#N)c1ccccc1 | > 100 | > 100 |  | > 100 | 95.6 | > 100 |  | 51.2 | > 100 |  |  |  |  |  |  |  |  |  |  |  |
| CN1C(=O)CC(c2cccc(C3CC(=O)N(C)C3=O)n2)C1=O (configuration not stated) | > 100 | > 100 | > 100 | > 100 | > 100 | > 100 | > 100 | > 100 | > 100 |  |  |  |  |  |  |  |  |  |  |  |
| NC(=O)NNCc1ccccc1 | > 100 | > 100 | > 100 | > 100 | > 100 | > 100 |  | > 100 | > 100 |  |  |  |  |  |  |  | > 100 |  |  |  |
| Cc1ccccc1NC(=O)C(=O)C(C#N)c1ccc(Cl)cc1 (configuration not stated) | > 100 | > 100 | > 100 | 31 | > 100 |  | > 100 | > 100 | > 100 |  |  |  |  |  |  |  |  |  |  |  |
| CCOc1ccccc1NC(=O)CC1C(=O)Nc2ccccc2S1=O (configuration not stated) | > 100 | > 100 | > 100 | > 100 | > 100 | > 100 | > 100 | > 100 | > 100 |  |  |  |  |  |  |  |  |  |  |  |
| CCCCCCCCCCCCNC(C)=O | 29.5 | 63.9 |  | 23.1 | 31.6 |  | 34.5 | 40.1 | 37 |  |  |  |  |  |  |  | 35.4 |  |  |  |
| O=C(O)C/C(=C\c1ccco1)C(=O)O |  | > 100 | > 100 | > 100 | > 100 | > 100 | > 100 | > 100 | > 100 |  |  |  |  |  |  |  | > 100 |  |  |  |
| O=C(Nc1ccccc1-c1n[nH]c(=S)[nH]c1=O)C(F)(F)F | > 100 |  |  | > 100 | > 100 | > 100 | > 100 | > 100 | > 100 |  |  |  |  |  |  |  |  |  |  |  |
| Clc1ncnc(Cl)c1Cl | > 100 |  |  | > 100 | > 100 | > 100 | > 100 | > 100 | > 100 |  |  |  |  |  |  |  | > 100 |  |  |  |
| Cc1ccc(S(=O)(=O)N[C@H](C(=O)O)c2ccccc2)cc1 | > 100 | > 100 | > 100 | > 100 | > 100 | > 100 | > 100 | > 100 | > 100 |  |  |  |  |  |  |  |  |  |  |  |
| Cc1cn(Cc2ccccc2CCO)c(=S)[nH]c1=O | > 100 | > 100 | > 100 | > 100 | > 100 | > 100 | > 100 | > 100 | > 100 |  |  |  |  |  |  |  |  |  |  |  |
| CC(C)(C)OC1=C(OC(C)(C)C)C(O)(c2ccccc2)C1=O (configuration not stated) | > 100 |  | > 100 | > 100 | > 100 | > 100 | > 100 | > 100 | > 100 |  |  |  |  |  |  |  |  |  |  |  |
| N#Cc1ccccc1NC(=O)/C(=N\N)C(C(=O)c1ccncc1)C1OC(=O)c2ccccc21 (configuration not stated) | > 100 | > 100 | > 100 | > 100 | > 100 | > 100 | > 100 | > 100 | > 100 |  |  |  |  |  |  |  |  |  |  |  |
| O=C(Nc1ccc(Cl)cc1Cl)C1C(=O)N(c2ccc(Cl)cc2Cl)C(=O)/C1=N\Nc1ccc([N+](=O)[O-])cc1[N+](=O)[O-] (configuration not stated) | > 100 | 98.7 | > 100 |  | > 100 | > 100 | > 100 | > 100 | > 100 |  |  |  |  |  |  |  |  |  |  |  |
| CC(C)/C=C1\CCC(CN2CCCC2)C1=O (configuration not stated) | 43.6 | 33.9 | 14.4 | 42.3 | 24.7 | 32.5 | 17.1 | 31.8 | 34.8 |  |  |  |  |  |  |  |  |  |  |  |
| COc1ccc(C2CC(c3cc(OC)c(OC)c(OC)c3)=NO2)cc1OCCCCOc1cc2c(cc1OC)C(=O)N1CCC[C@H]1C=N2 (some centres not stated) | 4.16 | 4.96 | 4.54 | 2.84 | 9.41 | 5.04 |  | 3.96 | 3.31 | 1.89 | 1.9 | 1.47 |  | 1.94 | 1.58 | 3.54 | > 100 | 2.33 | 3.51 | 2.07 |
| O=C(Nc1c(O)[nH]c(=S)[nH]c1=O)c1ccccc1F | > 100 | > 100 | > 100 | > 100 | > 100 | > 100 | > 100 | > 100 | > 100 |  |  |  |  |  |  |  |  |  |  |  |
| CC(C)(C)NNC(=O)/C(=C/c1ccc([N+](=O)[O-])cc1)NC(=O)c1ccccc1 | > 100 | > 100 | > 100 | 37.2 | > 100 | > 100 | > 100 | > 100 | > 100 |  |  |  |  |  |  |  |  |  |  |  |
| Cc1ccc2c(c1)C(C)Cc1c(ncnc1-n1cnc3ccccc31)N2C (configuration not stated) | 17.7 |  | 0.705 | 16.2 | 29.4 | 22.5 |  | 10.8 | 21.9 | 1.19 | 0.255 | 0.705 |  | 0.313 | 0.915 |  |  |  | 13.1 | 2.51 |
